Values belong to the compound of their own block, whether it stands above or below them.
What was measured:
Bone marrow progenitors = experiment: Cytotoxicity, colony formation; type: cell-based, human; settings: 14 days of treatment, colonies counted
Experimental: The evaluation of the off-target effects of NV651 was performed by ImQuest BioSciences Inc. (Frederick, MD, USA) by analyzing the cytotoxicity in a panel of primary cells. NV651 was evaluated at a concentration of 30 µM and five serial half-logarithmic dilutions in triplicate. The positive control compounds for each cell type were purchased from Sigma-Aldrich (St. Louis, MO, USA) and were as follows: Unstimulated human peripheral blood mononuclear cells (PBMCs), phytohemagglutinin (PHA)-stimulated PBMCs, monocytes/macrophages, dendritic cells, hepatocytes, induced pluripotent stem cell (iPS) neurons: […] AZT, kidney cells (RPTEC): cisplatin and iPS cardiomyocytes: Doxazosin. Bone marrow progenitor cells (Invitrogen, Waltham, MA, USA) were suspended in cell culture medium (Iscove-modified Dulbecco medium) containing 15% FBS, 10% giant tumor-conditioned medium (Bone Marrow Plus, Sigma-Aldrich, St. […] Cells (1 × 10^5 cells/well) were seeded in 6-well plates containing NV651 in triplicate. Cells were incubated for 14 days, and colonies (more than 30 cells) were counted.

CypD = CypD (Homo sapiens, UniProt P30405); experiment: PPIase activity assay (chymotrypsin-coupled); type: biochemical; settings: free-cell assay; Cyp equilibrated 1 h at 5 °C with inhibitor; read-out: absolute IC50, PPIase activity CypD
Sequence of CypD (P30405 30-207): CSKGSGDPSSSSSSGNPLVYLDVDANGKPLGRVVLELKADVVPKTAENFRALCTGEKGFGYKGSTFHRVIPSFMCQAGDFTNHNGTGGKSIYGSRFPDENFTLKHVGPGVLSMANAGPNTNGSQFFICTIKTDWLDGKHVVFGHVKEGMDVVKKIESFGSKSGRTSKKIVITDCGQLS
Experimental: (§1) The PPIase activity of CypA, CypB, CypD and Cyp40 was determined by following the rate of hydrolysis of N-succinyl-Ala-Ala-Pro-Phe-p-nitroanilide by chymotrypsin, a digestive enzyme that only hydrolyzes the trans form of the peptide. Therefore, the hydrolysis of the cis form, the concentration of which is maximized by using a stock dissolved in trifluoroethanol containing 470-mM LiCl, is only possible with the isomerization from the cis to the trans form. […] The reaction was started with the peptide addition, and the change in absorbance was monitored spectrophotometrically at a 6-s interval for 6 min. The blank rates of hydrolysis (in the absence of Cyps) were subtracted from the rates in the presence of Cyps. The initial rates of the enzymatic reaction were analyzed by a first-order regression analysis of the time course of the change in absorbance.

Cyp40 = Cyp40 (Homo sapiens, UniProt Q08752); experiment: PPIase activity assay (chymotrypsin-coupled); type: biochemical; settings: free-cell assay; Cyp equilibrated 1 h at 5 °C with inhibitor; read-out: absolute IC50, PPIase activity Cyp40
Sequence of Cyp40 (Q08752 whole entry): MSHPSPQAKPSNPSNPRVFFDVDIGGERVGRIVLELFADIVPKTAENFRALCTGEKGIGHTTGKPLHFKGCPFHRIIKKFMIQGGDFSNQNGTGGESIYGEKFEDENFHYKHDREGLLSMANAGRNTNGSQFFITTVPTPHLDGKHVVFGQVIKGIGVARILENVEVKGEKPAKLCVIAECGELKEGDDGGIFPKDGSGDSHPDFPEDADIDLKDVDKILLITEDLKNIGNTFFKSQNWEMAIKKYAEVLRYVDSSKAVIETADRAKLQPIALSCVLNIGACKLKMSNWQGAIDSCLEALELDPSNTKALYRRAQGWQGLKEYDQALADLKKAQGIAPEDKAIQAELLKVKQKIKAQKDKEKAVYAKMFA
Experimental: as §1

CypB = CypB (Homo sapiens, UniProt P23284); experiment: PPIase activity assay (chymotrypsin-coupled); type: biochemical
Sequence of CypB (P23284 34-216): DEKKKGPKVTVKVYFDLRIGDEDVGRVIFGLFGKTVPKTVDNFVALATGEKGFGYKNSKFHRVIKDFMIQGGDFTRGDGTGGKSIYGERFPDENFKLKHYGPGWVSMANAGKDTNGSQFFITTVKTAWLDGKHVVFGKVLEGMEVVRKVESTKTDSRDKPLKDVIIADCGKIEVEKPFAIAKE
Experimental: as §1

LIXC-012 = experiment: Cell proliferation assay: Acumen; type: cell-based; settings: Homo sapiens, 168 h, 7 days, read-out: Abs IC50 growth inhibition
Experimental: (§2) Compound screening and comparison of the antiproliferative effect of NV651 and sorafenib were performed by Shanghai ChemPartner Co., Ltd. (Shanghai, China). Cells were seeded in a 96-well plate at the following concentrations: LIXC-003 400 cells/well, LIXC-004 1000 cells/well, LIXC-086 5000 cells/well, LIXC-066 1250 cells/well, LIXC-012 2000 cells/well, LIXC-006 1250 cells/well, HEPG2 1000 cells/well, HUH7 2000 cells/well and Hep3B2.1-7-Luc 1000 cells/well. Cells were treated with either sorafenib or NV651 at 0.004, 0.011, 0.034, 0.103, 0.309, 0.926, 2.778, 8.333, 25 µM or an equivalent volume with DMSO.
(§3) After 7 days, cells were trypsinized and collected. Fifty microliters of cell suspension were added to 50 µL of 2-µM Calcein AM (Invitrogen, Cat# C3099, Waltham, MA, USA) diluted in HBSS and placed in a black-walled 96-well plate. The plate was left for 30 min at room temperature, followed by a scan with Acumen eX3.
(§4) Growth inhibition for direct cell counting (%) by Acumen was calculated as:(1) 100−100∗Experimental count−Blank/DMSO count −Blank

HEP3B2.1-7-Luc = experiment: Cell proliferation assay: Acumen; type: cell-based; settings: Homo sapiens, 168 h, 7 days, read-out: Abs IC50 growth inhibition
Experimental: as §2, §3, §4

LIXC-004 = experiment: Cell proliferation assay: Acumen; type: cell-based; settings: Homo sapiens, 168 h, 7 days, read-out: Abs IC50 growth inhibition
Experimental: as §2, §3, §4

HUH7 = experiment: Cell proliferation assay: Acumen; type: cell-based; settings: Homo sapiens, Huh-7, 168 h, 7 days, read-out: Abs IC50 growth inhibition
Experimental: as §2, §3, §4

LIXC-003 = experiment: Cell proliferation assay: Acumen; type: cell-based; settings: Homo sapiens, 168 h, 7 days, read-out: Abs IC50 growth inhibition
Experimental: as §2, §3, §4

LIXC-066 = experiment: Cell proliferation assay: Acumen; type: cell-based; settings: Homo sapiens, 168 h, 7 days, read-out: Abs IC50 growth inhibition
Experimental: as §2, §3, §4

LIXC-006 = experiment: Cell proliferation assay: Acumen; type: cell-based; settings: Homo sapiens, 168 h, 7 days, read-out: Abs IC50 growth inhibition
Experimental: as §2, §3, §4

HEPG2 = experiment: Cell proliferation assay: Acumen; type: cell-based; settings: Homo sapiens, 168 h, 7 days, read-out: Abs IC50 growth inhibition
Experimental: as §2, §3, §4

LIXC-086 = experiment: Cell proliferation assay: Acumen; type: cell-based; settings: Homo sapiens, 168 h, 7 days, read-out: Abs IC50 growth inhibition
Experimental: as §2, §3, §4

Dendritic cells = experiment: Cytotoxicity, CellTiter Glo; type: cell-based; settings: Homo sapiens, Dendritic cell, 168 h, 7 days of treatment, read-out: IC50 (50% reduction in cell viability)
Experimental: The evaluation of the off-target effects of NV651 was performed by ImQuest BioSciences Inc. (Frederick, MD, USA) by analyzing the cytotoxicity in a panel of primary cells. NV651 was evaluated at a concentration of 30 µM and five serial half-logarithmic dilutions in triplicate. The positive control compounds for each cell type were purchased from Sigma-Aldrich (St. Louis, MO, USA) and were as follows: Unstimulated human peripheral blood mononuclear cells (PBMCs), phytohemagglutinin (PHA)-stimulated PBMCs, monocytes/macrophages, dendritic cells, hepatocytes, induced pluripotent stem cell (iPS) neurons: […] AZT, kidney cells (RPTEC): cisplatin and iPS cardiomyocytes: Doxazosin. The isolation was based on Nair, Archer. Briefly, freshly separated PBMCs from one donor were suspended in DPBS at 4 × 10^6 cells per mL and cultured in a T-75 flask. Cells were incubated for 30 min and then washed 5–7 times with DPBS to remove nonadherent cells. Cells were cultured in RPMI 1640 supplemented with 10% FBS, 2-mM L-glutamine, 25-mM HEPES, […], 100-µg/mL streptomycin, 50-ng/mL rhGM-CSF and 50-ng/mL rhIL-4 and incubated for 7 days. After the incubation period, cells were cultured in the same media with the addition of LPS (10 ng/mL) for two days. […]

RPTECs = experiment: Cytotoxicity, CellTiter Glo; type: cell-based, human; settings: 3 days of treatment, read-out: IC50 (50% reduction in cell viability)
Experimental: The evaluation of the off-target effects of NV651 was performed by ImQuest BioSciences Inc. (Frederick, MD, USA) by analyzing the cytotoxicity in a panel of primary cells. NV651 was evaluated at a concentration of 30 µM and five serial half-logarithmic dilutions in triplicate. The positive control compounds for each cell type were purchased from Sigma-Aldrich (St. Louis, MO, USA) and were as follows: Unstimulated human peripheral blood mononuclear cells (PBMCs), phytohemagglutinin (PHA)-stimulated PBMCs, monocytes/macrophages, dendritic cells, hepatocytes, induced pluripotent stem cell (iPS) neurons: […] AZT, kidney cells (RPTEC): cisplatin and iPS cardiomyocytes: Doxazosin. Human primary renal proximal tubule cells (hRPTEC, Lonza, Basel, Switzerland) were cultured at 1 × 10^4 cells/well in supplemented REGM medium (Lonza, Basel, Switzerland). Following overnight incubation for adherence, cells were treated with NV651 in triplicate. After a 3-day treatment, CellTiter Glo (Promega, Madison, WI, USA) was used. CellTiter Glo was performed to evaluate cell viability. CellTiter Glo Luminescent Cell Viability Assay (Promega, Madison, WI, USA) was performed according to the manufacturer’s instructions.

iPS cardiomyocytes = experiment: Cytotoxicity, CellTiter Glo; type: cell-based; settings: Homo sapiens, Cardiomyocyte, 72 h, 3 days of treatment, read-out: IC50 (50% reduction in cell viability)
Experimental: The evaluation of the off-target effects of NV651 was performed by ImQuest BioSciences Inc. (Frederick, MD, USA) by analyzing the cytotoxicity in a panel of primary cells. NV651 was evaluated at a concentration of 30 µM and five serial half-logarithmic dilutions in triplicate. The positive control compounds for each cell type were purchased from Sigma-Aldrich (St. Louis, MO, USA) and were as follows: Unstimulated human peripheral blood mononuclear cells (PBMCs), phytohemagglutinin (PHA)-stimulated PBMCs, monocytes/macrophages, dendritic cells, hepatocytes, induced pluripotent stem cell (iPS) neurons: […] AZT, kidney cells (RPTEC): cisplatin and iPS cardiomyocytes: Doxazosin. iPS cardiomyocytes (Cellular Dynamics, Madison, WI, USA) were seeded in a 96-well plate precoated with 0.1% gelatin (Sigma-Aldrich, St. Louis, MO, USA) in a plating medium (Cellular dynamics, Madison, WI, USA) at a concentration of 1.5 × 10^4 cells/well. After 48 h of incubation, cells were washed, and NV651 diluted in the maintenance medium (Cellular Dynamics, Madison, WI, USA) was added. After 3 days of incubation, cell viability was measured with CellTiter Glo (Promega, Madison, WI, USA). CellTiter Glo was performed to evaluate cell viability. CellTiter Glo Luminescent Cell Viability Assay (Promega, Madison, WI, USA) was performed according to the manufacturer’s instructions.

Structure (SMILES): Cc1cn([C@H]2C[C@H](N=[N+]=[N-])[C@@H](CO)O2)c(=O)[nH]c1=O [AZT, reference compound]
IC50 (Bone marrow progenitors): 0.89 µM

IC50 (CypD): 0.00525 µM | IC50 (Cyp40): 0.00562 µM | IC50 (CypB): 0.00512 µM
Structure (SMILES): CC[C@H]1C[C@H](C)[C@@]2(NC1=O)O[C@@H](C[C@H](O)[C@@H](C)CC/C=C/C=C(\C)[C@@H]1C/C=C/C=C/[C@H](O)[C@H](C)[C@@H](O)[C@@H](CCC(C)=O)C(=O)N[C@@H](C(C)C)C(=O)N[C@@H](Cc3cccc(O)c3)C(=O)N3CCC[C@H](N3)C(=O)O1)[C@H](C)[C@H](O)[C@@H]2C [SfA, Sanglifehrin A, reference compound]

IC50 (HEP3B2.1-7-Luc): 3.9 µM | IC50 (HUH7): 0.739 µM | IC50 (HEPG2): 2.33 µM
Structure (SMILES): CNC(=O)c1cc(Oc2ccc(NC(=O)Nc3ccc(Cl)c(C(F)(F)F)c3)cc2)ccn1 [Sorafenib, reference compound]
IC50 (LIXC-012): 1.25 µM | IC50 (LIXC-004): 1.45 µM | IC50 (LIXC-003): 0.003 µM | IC50 (LIXC-066): 1.65 µM | IC50 (LIXC-006): 3.35 µM | IC50 (LIXC-086): 1.9 µM

Structure (SMILES): CN[C@@H]1C[C@H]2O[C@@](C)([C@@H]1OC)n1c3ccccc3c3c4c(c5c6ccccc6n2c5c31)C(=O)NC4 [Staurosporine, reference compound]
IC50 (Dendritic cells): 0.009 µM

Structure (SMILES): N.N.[Cl][Pt][Cl] [cisplatin, reference compound]
IC50 (RPTECs): 0.009 µM

Structure (SMILES): COc1cc2nc(N3CCN(C(=O)C4COc5ccccc5O4)CC3)nc(N)c2cc1OC (stereo not shown) [doxazosin, reference compound]
IC50 (iPS cardiomyocytes): 39.8 µM

Reference: publication PMC8234462, “Novel Cyclophilin Inhibitor Decreases Cell Proliferation and Tumor Growth in Models of Hepatocellular Carcinoma” (Cancers, 2021)
